How the values were obtained:
[1] = system: NALM-6 human leukemia cells; test: MTT cytotoxicity assay, NALM-6; assay type: cell-based; conditions: Homo sapiens
Method: (§1) The cytotoxicity assay of various compounds against human tumor cell lines was performed using the MTT (3-[4,5-dimethylthiazol-2-yl]-2,5-diphenyl tetrazolium bromide) assay (Boehringer Mannheim Corp., Indianapolis, Ind.). Briefly, exponentially growing tumor cells were seeded into a 96-well plate at a density of 2.5×10^4 cells/well and incubated for 36 hours at 37° C. prior to drug exposure. On the day of treatment, culture medium was carefully aspirated from the wells and replaced with fresh medium containing the quinazoline compounds at concentrations ranging from 0.1 to 250 μM. Triplicate wells were used for each treatment.
(§2) Human cell lines were obtained from American Type Culture Collection (Rockville, Md.) and maintained as a continuous cell line in Dulbecco's modified Eagles' medium supplemented with 10% fetal bovine serum and antibiotics. Cells used in this study include human leukemia cells (NALM-6 and MOLT-3), human breast cancer cells ([…]), human prostate cancer cells (PC3), and human brain tumor cells (U373).
(§3) The cells were incubated with the various compounds for 24–36 hours at 37° C. in a humidified 5% CO2 atmosphere. To each well, 10 μl of MTT (0.5 mg/ml final concentration) was added and the plates were incubated at 37° C. for 4 hours to allow MTT to form formazan crystals by reacting with metabolically active cells. The formazan crystals were solubilized overnight at 37° C. in a solution containing 10% SDS in 0.01 M HCl. The absorbance of each well was measured in a microplate reader (Labsystems) at 540 nm and a reference wavelength of 690 nm. To translate the OD 540 values into the number of live cells in each well, the OD 540 values were compared to those on standard OD 540—versus—cell number curves generated for each cell line. The percent survival was calculated using the formula:
(§4) [formula] The IC50 values were calculated by non-linear regression analysis. Detection of Apoptosis

[2] = system: MOLT-3 human leukemia cells; test: MTT cytotoxicity assay, MOLT-3; assay type: cell-based; conditions: Homo sapiens
Method: as §1, §2, §3, §4

[3] = system: BT20 human breast cancer cells; test: MTT cytotoxicity assay, BT20; assay type: cell-based; conditions: Homo sapiens
Method: as §1, §2, §3, §4

[4] = system: U373 human brain tumor cells; test: MTT cytotoxicity assay, U373; assay type: cell-based; conditions: Homo sapiens, U373 MG, Table 5, fluoro-substituted, value ± spread
Method: as §1, §2, §3, §4

[5] = system: PC3 human prostate cancer cells; test: MTT cytotoxicity assay, PC3; assay type: cell-based; conditions: Table 5, fluoro-substituted, value ± spread
Method: as §1, §2, §3, §4

PC3 cells = test: TUNEL apoptosis assay, PC3; assay type: cell-based, human; conditions: 24 hours incubation, FIG. 3
Method: Exponentially growing cells were seeded in 6-well tissue culture plates at a density of 50×10^4 cells/well and cultured for 36 hours at 37° C. in a humidified 5% CO2 atmosphere. The supernatant culture medium was carefully aspirated and replaced with fresh medium containing unconjugated EGF or EGF-P154 at a concentration of 10, 25, or 50 μg/ml. After a 36 hour incubation at 37° C. in a humidified 5% CO2 incubator, the supernatants were carefully aspirated and the cells were treated for 1–2 minutes with 0.1% trypsin. The detached cells were collected into a 15 ml centrifuge tube, washed with medium and pelleted by centrifugation at 1000 rpm for 5 minutes. Cells were resuspended in 50 μl of PBS, transferred to poly-L-lysine coated coverslips and allowed to attach for 15 minutes. The cells were washed once with PBS and incubated with equilibration buffer for 10 minutes at room temperature. […]
The cells were incubated with HI-P353 or HI-P219 for 24 hours, fixed, permeabilized, and visualized for DNA degradation in a TUNEL assay using digoxigenin-UTP-labeling kit. In the color photographs, red fluorescence represents nuclei stained with propidium iodide. […]

[6] = NALM-6, Table 5, fluoro-substituted, value ± spread
[7] = MOLT-3, Table 5, fluoro-substituted, value ± spread
[8] = BT-20, Table 5, fluoro-substituted, value ± spread

SMILES | IC50 [1, 6] [µM] | IC50 [2, 7] [µM] | IC50 [3, 8] [µM] | IC50 [4] [µM] | IC50 [5] [µM] | IC50 ([1]; NALM-6, Table 1, bromo substituted, 24–36 hours) [µM] | IC50 ([2]; MOLT-3, Table 1, bromo substituted, 24–36 hours) [µM] | IC50 ([3]; BT-20, Table 1, bromo substituted, 24–36 hours) [µM] | Induction of apoptosis (TUNEL) (PC3 cells)
COc1cc2ncnc(Nc3ccccc3OC(F)(F)F)c2cc1OC [HI-P365, 4-(2′-Trifluoromethoxylphenyl)-amino-6,7-dimethoxyquinazoline] | 86.5 ± 3.4 | 111 ± 7.5 | > 250 | > 250 | > 250 |  |  |  | 
COc1cc2ncnc(Nc3ccc(C(c4cccc(N)c4)(C(F)(F)F)C(F)(F)F)cc3)c2cc1OC [HI-P353] | 6.1 ± 1.4 | 17.4 ± 1.5 | 14.1 ± 3.3 | 14.5 ± 7.6 | 64.9 ± 11.9 |  |  |  | 
COc1cc2ncnc(Nc3ccc(S(=O)(=O)F)cc3)c2cc1OC [HI-P232, 4-[4′-benzenesulfanilylfluoride]-amino-6,7-dimethoxyquinazoline] | 41.4 ± 6.9 | 43.6 ± 2.3 | 70.5 ± 8.2 | 208 ± 18.1 | 88.9 ± 17.2 |  |  |  | 
COc1cc2ncnc(Nc3ccc(Br)cc3F)c2cc1OC [HI-P214, 4-(2′-Fluoro-4′-bromophenyl)-amino-6,7-dimethoxyquinazoline] | > 250 | > 250 | > 250 | > 250 | > 250 | > 250 | > 250 | > 250 | 
COc1cc2ncnc(Nc3ccccc3F)c2cc1OC [HI-P264, 4-(2′-Fluorophenyl)-amino-6,7-dimethoxyquinazoline] | 47 ± 19.5 | 70.9 ± 17.3 | 33.3 ± 7.5 | 53.3 ± 6.7 | > 250 |  |  |  | 
COc1cc2ncnc(Nc3cccc(C(F)(F)F)c3)c2cc1OC [HI-P218, 4-(3′-Trifluoromethylphenyl)-amino-6,7-dimethoxyquinazo-line] | 37 ± 5.8 | 33.2 ± 3.3 | 37.6 ± 5.2 | 29.9 ± 7.3 | 126 ± 5.8 |  |  |  | 
COc1cc2ncnc(Nc3ccc(C(c4ccc(N)cc4)(C(F)(F)F)C(F)(F)F)cc3)c2cc1OC [HI-P352, 4-{4′-[2″-(4′′′-Aminophenyl)-hexafluoropropyl]phenyl}amino-6,7-dimethoxyquinazoline] | 7.1 ± 1.8 | 21.8 ± 1.7 | 50.3 ± 14.8 | 65.5 ± 11.2 | 72.6 ± 2.5 |  |  |  | 
COc1cc2ncnc(Nc3c(F)c(F)c(Br)c(F)c3F)c2cc1OC [HI-P144, 4-(2′,3′,5′,6′-tetrafluoro-4′-bromophenyl)amino-6,7-dimethoxyquinazoline] | 28.1 ± 2.6 | 24.9 ± 3.7 | 63.4 ± 5.5 | 49.5 ± 11.3 | > 250 |  |  |  | 
COc1cc2ncnc(Nc3ccccc3C(F)(F)F)c2cc1OC [HI-P228, 4-(2′-Trifluoromethylphenyl)-amino-6,7-dimethoxyquinazoline] | 57.3 ± 24.8 | 237 ± 4.8 | > 250 | > 250 | > 250 |  |  |  | 
COc1cc2ncnc(Nc3ccc(F)cc3)c2cc1OC [HI-P221, 4-(4′-Fluorophenyl)-amino-6,7-dimethoxyquinazoline] | 100 ± 4.8 | 98.7 ± 3.8 | 30.7 ± 7.9 | 28.8 ± 12.7 | > 250 |  |  |  | 
COc1cc2ncnc(Nc3cc(C(F)(F)F)cc(C(F)(F)F)c3)c2cc1OC [HI-P366, 4-(3′,5′-Ditrifluoromethylphenyl)-amno-6,7-dimethoxyquinazoline] | 52.8 ± 14 | 137 ± 10.3 | 61.7 ± 12.1 | 55.5 ± 13.2 | > 250 |  |  |  | 
COc1cc2ncnc(Nc3cc(F)c(O)c(F)c3)c2cc1OC [HI-P408, 4-(4′-Hydroxyl-3′,5′-difluorophenyl)-amino6,7-dimethoxy-quinazoline] | 116 ± 17.8 | 228 ± 20.8 | > 250 | > 250 | > 250 |  |  |  | 
COc1cc2ncnc(Nc3cccc(OC(F)(F)F)c3)c2cc1OC [HI-P364, 4-(3′-Trifluoromethoxylphenyl)-amino-6,7-dimethoxyquinazoline] | 7.9 ± 1.9 | 25.3 ± 9.1 | 40.1 ± 8.6 | 27.7 ± 1.2 | > 250 |  |  |  | 
COc1cc2ncnc(Nc3ccc(OC(F)(F)F)cc3)c2cc1OC [HI-P219, 4-(4′-Trifluoromethoxylphenyl)-amino-6,7-dimethoxyqui-nazoline] | 22.3 ± 3 | 41.3 ± 4.4 | 44.2 ± 10.9 | 83.6 ± 6.5 | 58.3 ± 3.2 |  |  |  | Apoptosis was induced
COc1cc2ncnc(Nc3ccc(O)c(F)c3)c2cc1OC [HI-P369, 4-(4′-Hydroxyl-3′-fluorophenyl)-amino-6,7-dimethoxyquinazoline] | > 250 | > 250 | > 250 | > 250 | > 250 |  |  |  | 
COc1cc2ncnc(Nc3cccc(F)c3)c2cc1OC [HI-P224, 4-(3′-fluorophenyl)amino-6,7-dimethoxyquinazoline] | 20.2 ± 8.1 | 23.3 ± 7.7 | 58.3 ± 5.8 | 22.4 ± 5.9 | > 250 |  |  |  | 
COc1cc2ncnc(Nc3ccc(C(F)(F)F)cc3)c2cc1OC [HI-P223, 4-(4′-Trifluoromethylphenyl)-amino-6,7-dimethoxyquinazoline] | 39.5 ± 8 | 40.8 ± 15.1 | 27.6 ± 8.6 | 32.1 ± 3.9 | > 250 |  |  |  | 

Source: patent publication US7038049B2, “Haloanilino quinazolines and therapeutic use thereof” (Parker Hughes Institute, priority 1999, dated 2006)
